# Columns and labels:
# Acinetobacter baumannii = assay: SIgA breakdown / secretory component liberation by Acinetobacter baumannii (Western blot); format: cell-based; settings: for inhibition of SIgA reduction and SC liberation: 2 hours after incubation
# Procedure: Acinetobacter baumannii was incubated with 50 μg/mL SIgA to examine breakdown of the immunoglobulin. Breakdown of SIgA by A. baumannii was observed by liberation of secretory component from dimeric IgA. Goat anti-human secretory component (free and bound) antibody was used to monitor this occurrence though Western blot. A mixture of A. baumannii strain Ci79 was prepared in three concentrations −10^7, 10^6, and 10^5 CFU/mL—to determine whether SIgA breakdown was dose dependent with respect to bacterial concentration FIG. 1A. […] Next, two competitive inhibitors of reductase enzymes targeting the thioredoxin fold (-C-X-X-C-) motif typically found in thiol-reductase enzymes (thioredoxin, glutathione, thioredoxin reductase, etc) were identified. The first, dithionitrobenzoic acid (Ellman's reagent) is often used as a colorimetric substrate to monitor thioredoxin activity as it produces a bright yellow color upon cleavage of the disulfide bond within the molecule. The second is PX-12. […] (Error bars represent ±SEM in all graphs; statistical differences determined by ANOVA with Dunnett correction; * significance p<0.01; ** p<0.001).
# [1] = cited from earlier work
# [2] = test system: multi-drug resistant (MDR) Acinetobacter baumannii clinical isolates; assay: Minimum inhibitory concentration (MIC) determination; format: cell-based
# Procedure: PX-12 concentrations used in these experiments approximated the concentration reported “well tolerated” by mice (˜500 μg/mouse; 500 μg/mL for this experiment). […] Furthermore, this concentration was also bactericidal leading us to believe it may potentially be useful as a new antimicrobial compound for treating MDR Acinetobacter baumannii. (Bacterial concentrations used in presented studies ˜100× higher than recommended by CLSI standards)
# A. baumannii strain Ci79 = assay: Bacterial adherence to mouse intestinal sections; format: cell-based, Acinetobacter baumannii
# Procedure: Intestinal sections were cut down one side to expose the inner lumen of the intestine and individually placed in suspensions of A. baumannii strain Ci79 (10^7 CFU/mL). The sections were incubated in this mixture for 30 minutes, washed twice in 250 volumes of sterile PBS and soaked in 500 volumes of PBS (volume of section ˜50-100 μL) for five minutes. The remaining bound bacteria were enumerated through homogenization of each section into single cell suspensions in 10 mL sterile PBS followed by dilution plating.
SMILES,SIgA breakdown by Acinetobacter baumannii after addition of inhibitor (Acinetobacter baumannii),inhibition of SIgA reduction and SC liberation (Acinetobacter baumannii; 1 mM),inhibition of SIgA reduction at 24 hours (Acinetobacter baumannii; 24 hours),concentration reported well tolerated by mice [1],bacterial pellet size ([2]; 500 μg/mL),MIC ([2]; Acinetobacter baumannii),bactericidal effect ([2]; at 31.25 μg/mL),"bactericidal activity (low MIC combined with low MBC) ([2]; repeat MIC to CLSI standards, ~5×10^5 CFU/mL, 64 to 0.5 μg/mL)","bacterial adherence to intestinal sections (A. baumannii strain Ci79; 18 μg/mL, sections from WT C57BL/6 mice)","reduction of bacterial attachment (A. baumannii strain Ci79; WT intestinal sections as 100% control, Ci79 10^7 CFU/mL, 30 minutes)",time after which inhibition is overcome by the bacteria (Acinetobacter baumannii),inhibition of SIgA reduction and SC liberation (Acinetobacter baumannii; 15 μg/mL),"SIgA breakdown by Acinetobacter baumannii (Acinetobacter baumannii; 18 μg/mL, up to 2 hours following treatment)"
"O=C(O)c1cc(SSc2ccc([N+](=O)[O-])c(C(=O)O)c2)ccc1[N+](=O)[O-] [Ellman's reagent, dithionitrobenzoic acid]",significantly reduced,completely ablated,inhibition was still evident,–,–,–,–,–,–,–,–,–,–
"CCC(C)SSc1ncc[nH]1 (stereo not shown) [PX-12, 1-methylpropyl 2-imidazolyl disulfide]",–,–,–,~500 μg/mouse,visible decrease in bacterial pellet size,31.2 µg/mL,bactericidal,bactericidal activity,significantly inhibits,~40%,about 12 hours,completely ablated,significantly reduced

# Reference: patent US10478485B2, “Methods and compositions to prevent or treat bacterial infections” (priority 2015, dated 2019)
